The results in this text go back to patent publication US10173990B2, “URAT1 inhibitor” (Nippon Chemiphar Co., Ltd., priority 2014, dated 2019).

This test deals with URAT1 (Homo sapiens (Human), UniProt Q96S37). In words: Uptake of [14C] uric acid using HEK-URAT1. The settings on record: for remaining activity at 10 µM: 2 min, [14C] uric acid uptake into URAT1 stably expressed HEK293 cells, 10 μM test compound, 5 μM uric acid, 2 minutes, 37° C., uptake without test compound = 100%, read-out: % control (10 μM); for IC50: inhibition of [14C] uric acid uptake into URAT1 stably expressed HEK293 cells. The format is cell-based. Here is the method: More specifically, the test is performed by culturing URAT1 stably expressed HEK293 cells (HEK-URAT1) or HEK293 cells transfected with empty vector (HEK-mock) in a DMEM culture medium in an incubator. Subsequently, 1×10^5 cells are respectively seeded in 24-well culture plate coated with poly D-lysine and the uptake test is started after the culturing.
The cells are washed with a solution for a test warmed to 37° C. and equilibrated. After a buffer solution is removed from the cells, 0.5 mL of an uptake solution containing 5 μM [^14C] uric acid with or without a test compound is respectively added and the cells are incubated. The cell uptake is stopped by adding a Hanks buffer solution and the cells are washed. The cells are lysed with 0.1 N sodium hydroxide and the radioactivity is measured using LSC6100 (Aloka Co., Ltd. Tokyo). Each uptake into HEK-URAT1 is acquired by subtracting uptake into HEK-mock cells from the value of HEK-URAT1, converting the result to per mg protein of cells, and setting the values from the uptake without the test compound as 100%.
URAT1 stably expressed HEK293 cells (HEK-URAT1) or HEK293 cells transfected with empty vector (HEK-mock) were cultured in DMEM culture medium supplemented with 10% fetal bovine serum in an incubator under conditions of 5% carbon dioxide at 37° C. Subsequently, 1×10^5 cells were respectively seeded in 24-well culture plate coated with poly D-lysine and the uptake test was started after the culturing for 3 days.
The uptake experiment of uric acid was performed at 37° C. […] After a buffer solution was removed from the cells, 0.5 mL of an uptake solution containing 5 μM [^14C] uric acid with or without a test compound was respectively added and the cells were incubated for 2 minutes. The cell uptake was stopped by adding an ice-cold Hanks buffer solution without chloride ions and the cells were washed 3 times. The cells were lysed with 0.1 N sodium hydroxide and the radioactivity was measured using LSC6100 (Aloka Co., Ltd. Tokyo). Each uptake into HEK-URAT1 was acquired by subtracting uptake into HEK-mock cells from the value of HEK-URAT1, converting the result to per mg protein of cells, and setting the value from uptake without the test compound as 100%. The uptake in each condition was performed in triplicate and each value was represented by average±standard deviation.
The URAT1 inhibitory action was measured according to the same method as in Example 118.

Chain of URAT1 (Q96S37 whole entry): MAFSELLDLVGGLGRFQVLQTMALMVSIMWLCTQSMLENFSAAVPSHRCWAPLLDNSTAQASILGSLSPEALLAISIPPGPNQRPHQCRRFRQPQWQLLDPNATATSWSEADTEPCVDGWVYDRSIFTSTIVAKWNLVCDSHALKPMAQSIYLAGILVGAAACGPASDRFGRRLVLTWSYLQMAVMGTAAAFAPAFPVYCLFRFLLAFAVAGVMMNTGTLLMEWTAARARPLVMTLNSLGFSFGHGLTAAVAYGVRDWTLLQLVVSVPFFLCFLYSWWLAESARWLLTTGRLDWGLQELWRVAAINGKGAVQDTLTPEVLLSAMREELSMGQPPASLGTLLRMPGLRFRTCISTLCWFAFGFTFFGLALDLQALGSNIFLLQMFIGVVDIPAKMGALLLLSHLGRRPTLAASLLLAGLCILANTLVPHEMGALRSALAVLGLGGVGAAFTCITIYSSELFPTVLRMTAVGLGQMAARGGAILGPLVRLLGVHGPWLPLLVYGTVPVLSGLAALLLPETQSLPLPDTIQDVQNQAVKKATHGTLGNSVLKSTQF

With `CC(C)(Sc1ccc2ncsc2c1-c1ccc(C#N)cc1)C(=O)O` [Example 24, 2-[[7-(4-Cyanophenyl)benzo[d]thiazol-6-yl]thio]-2-methylpropanoic acid], the remaining activity at 10 µM amounted to 7.4% and it took 170 nM to reach half-maximal inhibition (IC50).
Take `CC(C)(Sc1ccc2cnsc2c1-c1ccc(C#N)cc1)C(=O)O` [Example 28, 2-[[7-(4-Cyanophenyl)benzo[d]isothiazol-6-yl]thio]-2-methylpropanoic acid]: the remaining activity at 10 µM is 0.1%.
With `CC(C)(Sc1c(-c2ccc(C#N)cc2)cnc2ccccc12)C(=O)O` [Example 45, 2-[[3-(4-Cyanophenyl)quinolin-4-yl]thio]-2-methylpropanoic acid], the remaining activity at 10 µM was 36.5% and the IC50 (as a rule, the midpoint of a concentration-inhibition curve) turned out to be 1580 nM.
`N#Cc1ccc(-c2c(O/C=C/C(=O)O)ccc3ccccc23)cc1` [Example 6, (E)-3-[[1-(4-Cyanophenyl)naphthalen-2-yl]oxy]acrylic acid]: the remaining activity at 10 µM came to 5.4%.
